Some test systems named below: SF-539 CNS; SF-268 CNS; A549 NSCLC; OVCAR-3 ovarian; U251 CNS; K-562 leukemia; SK-MEL-5 melanoma; SK-OV-3 ovarian; OVCAR-5 ovarian; HL-60(TB) leukemia.
Common to all, as to test: growth of human tumour cells (NCI), 48 h

“And” between values parts separate entries of the source, which are not always exact repeats. Identical values can stand only once.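 48-hour exposure; five concentrations; linearly interpolated endpoints. At the GI50, growth is halved. TGI is the concentration that stops growth completely.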

For the compound `COC(=O)CCC(=O)N1C/C(=C\c2ccccc2)C(=O)/C(=C/c2ccccc2)C1`, the TGI is 7.53 µM in the assay on SF-539 CNS; 5.89 µM in the assay on SF-268 CNS; 12.3 µM in the assay on A549 NSCLC; 5.01 µM in the assay with OVCAR-3 ovarian; 2.6 µM in the assay on U251 CNS; greater than 100 µM in the assay with K-562 leukemia. For the same compound, the values for the TGI in the assay with SK-MEL-5 melanoma, in the assay with SK-OV-3 ovarian and in the assay on OVCAR-5 ovarian were 5.44 µM, 13.9 µM and 6.24 µM, respectively.

In the case of `NCCCOc1cc2ccccc2cc1C(=O)Nc1ccc(Cl)cc1OC(=O)c1cc2ccccc2cc1OCCCN`, the GI50 with SF-539 CNS is 0.345 µM; in the assay with SF-268 CNS, 0.922 µM; with OVCAR-3 ovarian, 0.612 µM; in the assay with HL-60(TB) leukemia it was 0.517 µM; with SK-MEL-5 melanoma, 1.23 µM; in the assay with SK-OV-3 ovarian it was 1.57 µM. In addition, the GI50 in the assay on OVCAR-5 ovarian was 1 µM. In addition, the TGI in the assay on SF-539 CNS was found to be 0.9 µM; in the assay on SF-268 CNS, 2.44 µM; with OVCAR-3 ovarian, 1.43 µM; with HL-60(TB) leukemia, 2.37 µM; in the assay on SK-MEL-5 melanoma, 2.49 µM; in the assay with SK-OV-3 ovarian, 3.19 µM. Also, the TGI with OVCAR-5 ovarian worked out at 2.47 µM.

As to `CCOC(=O)C1C=C2O[C@@H]3OC4(CCCCC4)O[C@@H]3C2C2C(=O)CCC(=O)[C@@]12C(=O)OC` (some centres undefined), the TGI with SF-268 CNS, with A549 NSCLC, in the assay on OVCAR-3 ovarian, in the assay with U251 CNS, with K-562 leukemia and with HL-60(TB) leukemia was greater than 100 µM throughout. The TGI with SK-MEL-5 melanoma, in the assay with SK-OV-3 ovarian and with OVCAR-5 ovarian was greater than 100 µM each time.

As to `Nc1ccc(-c2cc(C(=O)Nc3nccs3)[nH]c(=S)n2)cc1`, the TGI in the assay with SF-539 CNS, with SF-268 CNS, with A549 NSCLC, in the assay on OVCAR-3 ovarian, with U251 CNS and in the assay with K-562 leukemia was greater than 100 µM in each case. The TGI in the assay on SK-MEL-5 melanoma, in the assay with SK-OV-3 ovarian and with OVCAR-5 ovarian was greater than 100 µM in each case.

`N#CC1=C(N)NC(=S)NC1c1ccc(-c2ccc(-c3nc4ccccc4o3)cc2)s1` (centres undefined): the GI50 with SF-268 CNS was 10.7 µM; with A549 NSCLC, 9 µM; in the assay on OVCAR-3 ovarian, 10.7 µM; in the assay on U251 CNS, 7.73 µM; in the assay with K-562 leukemia it was 4.7 µM; in the assay on HL-60(TB) leukemia it was 24.1 µM. Moreover, the values for the GI50 with SK-MEL-5 melanoma, in the assay with SK-OV-3 ovarian and in the assay with OVCAR-5 ovarian were 9.14 µM, 11 µM and 16 µM, respectively. For the same compound, the TGI is 26.5 µM in the assay on SF-268 CNS; 20.2 µM in the assay with A549 NSCLC; 37.2 µM in the assay on OVCAR-3 ovarian; 14.4 µM in the assay with U251 CNS; 15.5 µM with K-562 leukemia; greater than 50 µM in the assay with HL-60(TB) leukemia. Further, the TGI was found to be 18.3 µM in the assay with SK-MEL-5 melanoma, 31 µM with SK-OV-3 ovarian and 34.6 µM with OVCAR-5 ovarian.

On to `Nc1ccccc1C#C/C=C\C#CC#C/C=C\C#Cc1ccccc1N`, for which the GI50 was 3.96 µM in the assay with SF-539 CNS; 5.93 µM with SF-268 CNS; 2.77 µM with A549 NSCLC; 2.78 µM in the assay with OVCAR-3 ovarian; 5.61 µM with U251 CNS; 0.781 µM in the assay with K-562 leukemia. Moreover, the GI50 in the assay on SK-MEL-5 melanoma is 8.43 µM; with SK-OV-3 ovarian, 22.8 µM; with OVCAR-5 ovarian, 14.9 µM. In addition, the TGI in the assay with SF-539 CNS is 16.6 µM; in the assay on SF-268 CNS, 26.2 µM; in the assay on A549 NSCLC, 16.4 µM; with OVCAR-3 ovarian it was 14 µM; in the assay on U251 CNS, 22.2 µM; in the assay on K-562 leukemia, greater than 100 µM. Also, the TGI in the assay on SK-MEL-5 melanoma was 22.9 µM; in the assay with SK-OV-3 ovarian, greater than 100 µM; with OVCAR-5 ovarian, 42.1 µM.

For `CC1(C)CCCC2(C)C3C(O)CC2(C)C(O)C31` (centres undefined), the TGI with SF-539 CNS, in the assay with SF-268 CNS, with A549 NSCLC, in the assay on OVCAR-3 ovarian, with U251 CNS and in the assay with K-562 leukemia was greater than 100 µM throughout. The TGI in the assay with SK-MEL-5 melanoma, with SK-OV-3 ovarian and in the assay with OVCAR-5 ovarian was greater than 100 µM throughout.

As for `COc1ccc(C(C)c2cc(OC)c(OC)c(OC)c2)cc1` (centres undefined), the GI50 with SF-268 CNS is 0.621 µM; in the assay on A549 NSCLC, 0.189 µM; in the assay with OVCAR-3 ovarian it was 0.0889 µM; with U251 CNS, 0.173 µM; with K-562 leukemia it was 0.0261 µM; with HL-60(TB) leukemia it was 0.0979 µM. In addition, the values for the GI50 in the assay on SK-MEL-5 melanoma, in the assay with SK-OV-3 ovarian and in the assay with OVCAR-5 ovarian were 0.13 µM, 0.159 µM and 0.291 µM, respectively. The TGI is greater than 50 µM in the assay with SF-268 CNS; greater than 50 µM with A549 NSCLC; 0.384 µM with OVCAR-3 ovarian; greater than 50 µM in the assay with U251 CNS; greater than 50 µM in the assay with K-562 leukemia; 0.374 µM in the assay on HL-60(TB) leukemia. In addition, the results for the TGI in the assay with SK-MEL-5 melanoma, in the assay with SK-OV-3 ovarian and with OVCAR-5 ovarian were 12.8 µM, greater than 50 µM and greater than 50 µM, respectively.

For the compound `Nc1ncnc2c1ncn2C1OC(COS(N)(=O)=O)C(O)C1O` (centres undefined), the GI50 in the assay on HL-60(TB) leukemia was less than 0.001 µM; in the assay on SK-MEL-5 melanoma it was 0.00177 µM and 0.0175 µM. The TGI was 0.00378 µM with HL-60(TB) leukemia; 0.00336 µM and 0.0321 µM in the assay with SK-MEL-5 melanoma; 0.00784 µM and 0.0758 µM in the assay on SK-OV-3 ovarian.

`CCOC(=O)C(=O)Nc1cc(Cl)c(Cl)cc1Cl`: the TGI in the assay on SF-539 CNS, in the assay on SF-268 CNS, with OVCAR-3 ovarian, with U251 CNS, in the assay with K-562 leukemia and in the assay with SK-MEL-5 melanoma was greater than 100 µM throughout. Moreover, the TGI in the assay on SK-OV-3 ovarian and with OVCAR-5 ovarian was greater than 100 µM in each case.

With `CC(=O)Oc1ccc2c(c1)[C@@]1(C)CCCC(C)(C)[C@@H]1CC2`, the GI50 in the assay on SF-268 CNS is 20.9 µM; in the assay on A549 NSCLC, 24.7 µM; in the assay with OVCAR-3 ovarian, 15.8 µM; with U251 CNS, 19.9 µM; with K-562 leukemia, 40 µM; in the assay on HL-60(TB) leukemia, 34.7 µM. The GI50 in the assay with SK-MEL-5 melanoma is 30.9 µM; in the assay with OVCAR-5 ovarian, 22.3 µM. In addition, the TGI with SF-268 CNS was 47.9 µM; with A549 NSCLC, 64.8 µM; in the assay with OVCAR-3 ovarian, 41.1 µM; in the assay with U251 CNS, 35 µM; in the assay on K-562 leukemia, greater than 100 µM; in the assay with HL-60(TB) leukemia, greater than 100 µM. Besides, the figures for the TGI in the assay with SK-MEL-5 melanoma and in the assay on OVCAR-5 ovarian were 73.6 µM and 40.5 µM, respectively.

With `CC1=CC(C)(c2c[nH]c3ccccc23)CC(C)(C)c2c1[nH]c1ccccc21` (centres undefined), the TGI was greater than 100 µM with SF-539 CNS; greater than 100 µM with SF-268 CNS; 28.3 µM with A549 NSCLC; 28.6 µM in the assay with OVCAR-3 ovarian; 32 µM with U251 CNS; 53.9 µM with K-562 leukemia. Also, the TGI came to 61.8 µM in the assay on SK-OV-3 ovarian and 36.4 µM in the assay with OVCAR-5 ovarian.

For the compound `Nc1nonc1-c1nc2ccccc2n1Cc1ccc(F)cc1`, the GI50 is 8.14 µM in the assay with SF-539 CNS; 9.61 µM with SF-268 CNS; 5.69 µM in the assay with A549 NSCLC; 5.8 µM in the assay with OVCAR-3 ovarian; 7.48 µM in the assay with U251 CNS; 4.37 µM in the assay on K-562 leukemia. The results for the GI50 with SK-OV-3 ovarian and with OVCAR-5 ovarian were 16.8 µM and greater than 100 µM, respectively. Besides, the TGI in the assay with SF-539 CNS, in the assay with SF-268 CNS, in the assay on A549 NSCLC, in the assay on OVCAR-3 ovarian, with U251 CNS and with K-562 leukemia was greater than 100 µM throughout. Further, the TGI in the assay on SK-OV-3 ovarian and with OVCAR-5 ovarian was greater than 100 µM each time.

With `Cc1coc2c1C(=O)C(=O)c1ccccc1-2`, the TGI stood at 2.88 µM in the assay on SF-539 CNS; 4.07 µM in the assay with A549 NSCLC; 3.29 µM in the assay with OVCAR-3 ovarian; 2.97 µM in the assay with U251 CNS; 1.44 µM in the assay with K-562 leukemia; 1.92 µM in the assay with SK-MEL-5 melanoma. The TGI was 3.25 µM with SK-OV-3 ovarian and 3.55 µM in the assay on OVCAR-5 ovarian.

Regarding `O=C1N2Cc3c4ccc5c3CN3C(=O)N6Cc7c(ccc(c7CN1C6(c1ccccc1)C23c1ccccc1)OCCOCCOc1cc(Br)c(Br)cc1OCCOCCO4)OCCOCCOc1cc(Br)c(Br)cc1OCCOCCO5` (centres undefined), the TGI in the assay on SF-539 CNS is 37.9 µM; with SF-268 CNS it was greater than 100 µM; with A549 NSCLC it was greater than 100 µM; with OVCAR-3 ovarian, greater than 100 µM; with U251 CNS, greater than 100 µM; in the assay with K-562 leukemia it was greater than 100 µM. The TGI with SK-MEL-5 melanoma and in the assay with SK-OV-3 ovarian was greater than 100 µM each time.

As for `Cc1ccc(S(=O)(=O)N2CCCSCCSCCCN(S(=O)(=O)c3ccc(C)cc3)CC2)cc1`, the TGI in the assay with SF-539 CNS, in the assay with SF-268 CNS, in the assay with A549 NSCLC, with OVCAR-3 ovarian, with U251 CNS and with SK-MEL-5 melanoma was greater than 100 µM each time. The TGI with SK-OV-3 ovarian and in the assay with OVCAR-5 ovarian was greater than 100 µM throughout.

As for `Cc1c(Cl)c(=O)oc2cc(OC/C=C3\CCC(=O)O3)ccc12`, the GI50 in the assay on SF-539 CNS was 17.4 µM; with SF-268 CNS, 18.8 µM; with A549 NSCLC, 58.2 µM; with OVCAR-3 ovarian, 14.7 µM; with U251 CNS, 16.8 µM; in the assay with K-562 leukemia, 28.2 µM. Further, the values for the GI50 in the assay with SK-MEL-5 melanoma, in the assay with SK-OV-3 ovarian and in the assay with OVCAR-5 ovarian were 21 µM, 58 µM and 27.8 µM, respectively. The TGI in the assay with SF-539 CNS was 56.5 µM; in the assay with SF-268 CNS, 64.3 µM; with A549 NSCLC it was greater than 100 µM; in the assay on OVCAR-3 ovarian, 33.1 µM; with U251 CNS, 33.3 µM; in the assay on K-562 leukemia, 78.7 µM. Moreover, the TGI with SK-MEL-5 melanoma was 52.2 µM; in the assay with SK-OV-3 ovarian it was greater than 100 µM; in the assay with OVCAR-5 ovarian, 80 µM.

Source of the values: PubChem BioAssay (NCI).
